Data from patent US7931904B2, “Modulation of MUC1 activity” (Dana Farber Cancer Institute, Inc., priority 2005, dated 2011).

Tests used:
ZR-75-1 cells [1] = experiment: ChIP with anti-MUC1 C-ter antibody, p21 gene p53RE2; type: cell-based, human; conditions: 50 μM, kinetic analysis
Method: (§1) Chromatin immunoprecipitation (ChIP) and Repeat ChIP (Re-ChIP) assays. ChIP assays were performed as previously described [Shang et al. (2000) Cell 103:843-852] using anti-MUC1 C-ter antibody, anti-p53 antibody (Ab-6; Oncogene Research Products), anti-CBP antibody (C-1; Santa Cruz Biotechnology), anti-HDAC1 antibody (Upstate Biotechnology Inc., Waltham, Mass.), anti-Ac-H4 (Upstate Biotechnology Inc.), anti-TBP antibody (58C9; Santa Cruz Biotechnology), anti-TFIIB antibody (IIB8; Santa Cruz Biotechnology), or anti-TAFII250 antibody (6B3; Santa Cruz Biotechnology). For PCR, 2 μl from a 50 μl DNA extraction were used with 30-38 cycles of amplification. The primers for the p21 gene promoter p53-responsive elements (p53RE1 and p53RE2) have been previously described [Liu et al. (2003) J. Biol. Chem. 277:17557-17565]. The primers for the p21 gene control region (CR) were (forward: 5′-[…]-3′ (SEQ ID NO:14); reverse 5′-[…]-3′ (SEQ ID NO:15)) and the p21 gene PP were (forward: 5′-[…]-3′ (SEQ ID NO:16); reverse: 5′-[…]-3′ (SEQ ID NO:17)). Primers used for the Bax gene promoter p53RE were (forward: 5′-[…]-3′ (SEQ ID NO:18); reverse: 5′-[…]-3′ (SEQ ID NO:19)), Bax gene control region (CR) were (forward: 5′-[…]-3′ (SEQ ID NO:20); reverse: 5′-[…]-3′ (SEQ ID NO:21)) and the Bax gene PP were (forward: 5′-[…]-3′ (SEQ ID NO:22); reverse: 5′-[…]-3′ (SEQ ID NO:23)).

HCT116/MUC1 cells [2] = experiment: as above; type: cell-based, human; conditions: 50 μM, kinetic analysis
Method: as §1

HCT116/vector cells [3] = experiment: Flow cytometry of cell cycle (DNA content); type: cell-based, human; conditions: 48 h
Method: (§2) Flow cytometry. Cells were fixed with 80% ice-cold ethanol, incubated in phosphate buffered saline (PBS) containing 30 μg/ml RNase (Roche Applied Science) for 60 min at 37° C. and then stained with propidium iodide (Sigma) for 30 min at room temperature in the dark. DNA content was analyzed by flow cytometry (Coulter EPICS XL-MCL; Miami, Fla.).

HCT116/MUC1 cells [4] = experiment: Flow cytometry of cell cycle (DNA content); type: cell-based, human; conditions: 48 h
Method: as §2

HCT116/vector cells [5] = experiment: ChIP with anti-p53 antibody, p21 gene p53RE2; type: cell-based, human; conditions: 50 μM, 8 h
Method: as §1

[6] = test system: HCT116/MUC1 as compared to HCT116/vector cells; experiment: Colony formation assay; type: cell-based, human; conditions: 12-48 h treatment, 8 d culture
Method: (§3) Colony formation assays. Aliquots containing 500 cells were plated into individual wells of 6-well culture plates containing 2 ml/well complete medium and incubated for 18-24 h at 37° C. The cells were treated with CDDP or etoposide for 12-48 h, washed and incubated for 8 d. Resulting colonies were stained with crystal violet and counted manually.

ZR-75-1 cells [7] = experiment: Colony formation assay; type: cell-based, human; conditions: ZR-75-1/vector vs ZR-75-1/MUC1siRNA cells, 12-48 h treatment, 8 d culture
Method: as §3

ZR-75-1 cells [8] = experiment: ChIP with anti-MUC1 C-ter antibody, Bax gene PP; type: cell-based, human; conditions: 50 μM, time course
Method: as §1

HCT116/MUC1 cells [9] = experiment: ChIP with anti-MUC1 C-ter antibody, Bax gene PP; type: cell-based, human; conditions: 50 μM, time course
Method: as §1

ZR-75-1 cells [10] = experiment: anti-p53 immunoprecipitation and anti-MUC1 C-ter immunoblot; type: cell-based, human; conditions: 50 or 100 μM, 24 h
Method: (§4) Immunoblotting and immunoprecipitation. Cell lysates were prepared from subconfluent cells as previously described [Wei et al. (2003) J. Biol. Chem. 278:29288-29297]. Immunoblot analysis was performed with anti-p53 antibody (Ab-2, Ab-6; Oncogene Research Products, San Diego, Calif.), anti-MUC1 N-ter antibody [the DF3 monoclonal antibody that binds to the N-terminal segment of human MUC1; Kufe et al. (1984) Hybridoma 3:223-232], anti-MUC1 C-ter antibody (Ab-5 that binds to the C-terminal segment of human MUC1; Neomarkers, Freemont, Calif.), anti-β-actin antibody (Sigma), anti-Myc antibody (Ab-1; Oncogene Research Products), anti-Bax antibody antibody (Santa Cruz Biotechnology; Santa Cruz, Calif.) and anti-p21 (Santa Cruz Biotechnology). Lysates were subjected to immunoprecipitation with anti-p53 or anti-Myc antibody and the immune complexes were analyzed by immunoblotting.

HCT116/MUC1 cells [11] = experiment: as above; type: cell-based, human; conditions: 50 or 100 μM, 24 h
Method: as §4

p53 [12] = biological target: T1, p53 (Homo sapiens, UniProt P04637); experiment: GST pull-down of 35S-labeled p53 by GST-MUC1-CD variants; type: binding; conditions: GST fusion proteins, 90 min at 4° C.
T1 construct: made in house; host or cells: cell-free TNT in vitro transcription/translation reaction (Promega)
Excerpt: GST pull-down assays. […] After washing, the adsorbed proteins were resolved by SDS-PAGE and analyzed by autoradiography or Coomassie blue staining.

p53 [13] = biological target: p53 (Homo sapiens, UniProt P04637, R273H); experiment: Co-immunoprecipitation of Myc-MUC1-CD variants with p53 in transfected U2OS cells; type: cell-based; conditions: transiently transfected U2OS cells
Method: as §4
Plasmid construction and transfection. […] Transfections were performed in 60 mm tissue culture dishes using Fugene®-6 (Roche Applied Science, Indianapolis, Ind.) or, for the luciferase assays, in 24 well tissue culture plates using the calcium phosphate method (Invitrogen, Carlsbad, Calif.). […]

In the case of `N.N.[Cl][Pt][Cl]` [cisplatin], the “MUC1 occupancy of p21 gene p53RE2” value (ZR-75-1 cells [1]) is reported as “increases”, the “MUC1 occupancy of p21 gene p53RE2” value (HCT116/MUC1 cells [2]) is reported as “increases” and the cell cycle progression (HCT116/vector cells [3]) is reported as “G1 arrest of cell cycle progression”. For the same compound, the cell cycle progression (HCT116/MUC1 cells [4]) was “G1 arrest of cell cycle progression”, the “p53 occupancy of the p21 gene p53RE2” value (HCT116/vector cells [5]) was “increased” and the “clonogenic survival of drug-treated cells” value [6] was “higher”. For the same compound, the “clonogenic survival following drug treatment” value (ZR-75-1 cells [7]) was “increased by MUC1 expression”, the “MUC1 occupancy of the Bax gene PP” value (ZR-75-1 cells [8]) was “increased through 4-6 h” and the “MUC1 occupancy of the Bax gene PP” value (HCT116/MUC1 cells [9]) was “increased through 4-6 h”. The “binding of endogenous MUC1 and p53” value (ZR-75-1 cells [10]) was “Increased binding of endogenous MUC1 and p53” and the “association of p53 and MUC1” value (HCT116/MUC1 cells [11]) was “increase in the association of p53 and MUC1”.

In the case of `COc1cc([C@@H]2c3cc4c(cc3[C@@H](O[C@@H]3O[C@@H]5CO[C@@H](C)O[C@H]5[C@H](O)[C@H]3O)[C@H]3COC(=O)[C@H]23)OCO4)cc(OC)c1O` [etoposide], the “MUC1 occupancy of p21 gene p53RE2” value (ZR-75-1 cells [1]) is reported as “increases”, the “MUC1 occupancy of p21 gene p53RE2” value (HCT116/MUC1 cells [2]) is reported as “increases” and the cell cycle progression (HCT116/vector cells [3]) is reported as “G1 arrest of cell cycle progression”. The cell cycle progression (HCT116/MUC1 cells [4]) was “G1 arrest of cell cycle progression”, the “p53 occupancy of the p21 gene p53RE2” value (HCT116/vector cells [5]) was “increased” and the “clonogenic survival of drug-treated cells” value [6] was “higher”. For the same compound, the “clonogenic survival following drug treatment” value (ZR-75-1 cells [7]) was “increased by MUC1 expression”, the “MUC1 occupancy of the Bax gene PP” value (ZR-75-1 cells [8]) was “increased through 4-6 h” and the “MUC1 occupancy of the Bax gene PP” value (HCT116/MUC1 cells [9]) was “increased through 4-6 h”. The “binding of endogenous MUC1 and p53” value (ZR-75-1 cells [10]) was “Increased binding of endogenous MUC1 and p53” and the “association of p53 and MUC1” value (HCT116/MUC1 cells [11]) was “increase in the association of p53 and MUC1”.

With “MUC1-CD(1-51): deletion variant of MUC1-CD, amino acids 1-51 (SEQ ID NO:5) (CQCRRKNYGQLDIFPARDAYHPMSEYPTYHTHGRYVPPSSTNRSPYEKVSE; listed as Homo sapiens)” the “binding to 35S-labeled p53 in vitro” value (p53 [12]) was “sufficient to form a complex with p53 in vitro” and the “complex formation with p53 in cells” value (p53 [13]) was “in vivo binding of p53”.
